The numbers were not newly measured in US6380175B1, “Method for enhancement of delivery of THC by the administration of its prodrugs via the nasal route” (New Millennium Pharmaceutical Research, Inc., priority 1999, dated 2002), which cites them from elsewhere.

The conditions of the data set: room temperature.

Turning to `CCCCCc1cc(O)c2c(c1)OC(C)(C)C1CCC(C)=CC21` (stereo not shown) [THC, Δ-9-tetrahydrocannabinol], the aqueous solubility entry is “very poor aqueous solubility”.
